Results taken from ChEMBL document CHEMBL1201862, “PubChem BioAssay data set” (2004).
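The compound was tested at five concentrations on cells cultured in 96-well plates, with a 48-hour exposure period. Abbreviation: GI50, concentration required for 50% inhibition of growth.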 The source made the active and inactive calls. Rule as the data show it: active = GI50 up to about 1.1 µM and inactive = higher.

Columns and labels:
Assay in all cases: inhibition of tumour cell growth, NCI panel, 48 h
MDA-MB-231 = tested on: MDA-MB-231
NCI-H460 = tested on: NCI-H460
UACC-62 = tested on: UACC-62
OVCAR-3 = tested on: OVCAR-3
NCI-H23 = tested on: NCI-H23
BT-549 = tested on: BT-549
MOLT-4 = tested on: MOLT-4
TK-10 = tested on: TK-10
ACHN = tested on: ACHN
KM12 = tested on: KM12
MCF7 = tested on: MCF7
CAKI-1 = tested on: CAKI-1
OVCAR-4 = tested on: OVCAR-4
HCC 2998 = tested on: HCC 2998
RXF 393 = tested on: RXF 393
OVCAR-8 = tested on: OVCAR-8
U-251 = tested on: U-251
UO-31 = tested on: UO-31
CCRF-CEM = tested on: CCRF-CEM
LOX IMVI = tested on: LOX IMVI

Row | Compound | GI50 (MDA-MB-231) | GI50 (NCI-H460) | GI50 (UACC-62) | GI50 (OVCAR-3) | GI50 (NCI-H23) | GI50 (BT-549) | GI50 (MOLT-4) | GI50 (TK-10) | GI50 (ACHN) | GI50 (KM12) | GI50 (MCF7) | GI50 (CAKI-1) | GI50 (OVCAR-4) | GI50 (HCC 2998) | GI50 (RXF 393) | GI50 (OVCAR-8) | GI50 (U-251) | GI50 (UO-31) | GI50 (CCRF-CEM) | GI50 (LOX IMVI)
1 | O=C1C=C(c2c(O)ccc3ccccc23)c2ccccc2C1=O | 3.85 µM (inactive) | 6.32 µM (inactive) | 2.35 µM (inactive) | 2.32 µM (inactive) | 2.15 µM (inactive) | 2.48 µM (inactive) | 1.72 µM (inactive) | 12.1 µM (inactive) | 3.44 µM (inactive) | 3.77 µM (inactive) | < 0.01 µM (active) | 7.93 µM (inactive) | 1.92 µM (inactive) | 11.7 µM (inactive) | 2.06 µM (inactive) | 1.89 µM (inactive) | 2.21 µM (inactive) | 2.24 µM (inactive) | 1.86 µM (inactive) | 1.77 µM (inactive)
2 | CCOC(=O)/C(C#N)=C(/NNc1ccccc1)c1ccncc1C(=O)O | > 100 µM (inactive) | > 28.1 µM (inactive) | 5.15 µM (inactive) | > 100 µM (inactive) | > 100 µM (inactive) | > 100 µM (inactive) | 5.09 µM (inactive) | > 100 µM (inactive) | > 21.5 µM (inactive) | 3.4 µM (inactive) | > 64.9 µM (inactive) | > 73.1 µM (inactive) | > 100 µM (inactive) | > 22.4 µM (inactive) | > 100 µM (inactive) | > 32.4 µM (inactive) | > 100 µM (inactive) | 4.49 µM (inactive) | > 38.2 µM (inactive) | 2.81 µM (inactive)
3 | COC(=O)[C@@H]1C[C@@H]2c3ccccc3N(S(=O)(=O)c3ccccc3)[C@@H]2N1C(=O)OC | > 100 µM (inactive) | > 100 µM (inactive) | > 100 µM (inactive) | > 100 µM (inactive) | 37.1 µM (inactive) | > 100 µM (inactive) | > 100 µM (inactive) | > 100 µM (inactive) | > 100 µM (inactive) | > 100 µM (inactive) | > 100 µM (inactive) | > 100 µM (inactive) | > 100 µM (inactive) | > 100 µM (inactive) | > 100 µM (inactive) | > 100 µM (inactive) | > 100 µM (inactive) | > 100 µM (inactive) | > 100 µM (inactive) | > 100 µM (inactive)
4 | Cc1cc(NS(=O)(=O)c2ccc(NC(=O)c3ccc4nc5ccccc5c(Nc5ccc(S(N)(=O)=O)cc5)c4c3)cc2)no1 | 24 µM (inactive) | 20.7 µM (inactive) | 29.7 µM (inactive) | 27.5 µM (inactive) | 33 µM (inactive) | 28 µM (inactive) | 22.3 µM (inactive) | 30.5 µM (inactive) | 21.3 µM (inactive) | 22.9 µM (inactive) | 19.9 µM (inactive) | 38.1 µM (inactive) | 27.4 µM (inactive) | 38.9 µM (inactive) | 23.4 µM (inactive) | 24.6 µM (inactive) | 25.5 µM (inactive) | 20.1 µM (inactive) | 22.6 µM (inactive) | 13.6 µM (inactive)
5 | CN(C)C1=Nc2ccccc2C(=S)N2CSCC12 (stereo not drawn) | 44.3 µM (inactive) | 37.8 µM (inactive) | 75.5 µM (inactive) | 32.7 µM (inactive) | – | 78.5 µM (inactive) | 22.4 µM (inactive) | > 100 µM (inactive) | > 100 µM (inactive) | > 100 µM (inactive) | 47.3 µM (inactive) | 20.9 µM (inactive) | > 100 µM (inactive) | > 100 µM (inactive) | 44.7 µM (inactive) | > 100 µM (inactive) | 35.6 µM (inactive) | > 100 µM (inactive) | 16.4 µM (inactive) | 43.3 µM (inactive)
6 | CC(=O)c1ccc2c(c1)CC1(C2)Cc2ccccc2C1=O (stereo not drawn) | 57.3 µM (inactive) | 62.1 µM (inactive) | 55.6 µM (inactive) | 50.9 µM (inactive) | 78.9 µM (inactive) | 43.4 µM (inactive) | 29.6 µM (inactive) | 19.4 µM (inactive) | 54 µM (inactive) | 43.3 µM (inactive) | 26.7 µM (inactive) | 33.1 µM (inactive) | 31.4 µM (inactive) | 40.6 µM (inactive) | 42.5 µM (inactive) | 37.9 µM (inactive) | 67.5 µM (inactive) | 42.4 µM (inactive) | 29.5 µM (inactive) | 36.1 µM (inactive)
7 | N=C(N)NCCCC(NC(=O)OCCCCCn1ccc(N)nc1=O)C(=O)O (stereo not drawn) | > 100 µM (inactive) | > 100 µM (inactive) | > 100 µM (inactive) | > 100 µM (inactive) | > 100 µM (inactive) | > 100 µM (inactive) | > 100 µM (inactive) | > 100 µM (inactive) | > 100 µM (inactive) | > 100 µM (inactive) | > 100 µM (inactive) | > 100 µM (inactive) | > 100 µM (inactive) | > 100 µM (inactive) | > 100 µM (inactive) | > 100 µM (inactive) | > 100 µM (inactive) | > 100 µM (inactive) | > 100 µM (inactive) | > 100 µM (inactive)
8 | COc1ccc2o/c(=N\c3ccc(F)cc3)c(C(N)=O)cc2c1 | 16.3 µM (inactive) | > 100 µM (inactive) | 35.3 µM (inactive) | 49.9 µM (inactive) | 29.3 µM (inactive) | > 100 µM (inactive) | > 100 µM (inactive) | 21.6 µM (inactive) | 30.5 µM (inactive) | > 100 µM (inactive) | 56.8 µM (inactive) | 45.6 µM (inactive) | 27.9 µM (inactive) | > 100 µM (inactive) | 12.4 µM (inactive) | 17.8 µM (inactive) | 34.7 µM (inactive) | 46.8 µM (inactive) | > 100 µM (inactive) | > 100 µM (inactive)
9 | Nc1nc(Cl)cc(NCCC2(CO)CCC2)n1 | > 100 µM (inactive) | > 100 µM (inactive) | > 100 µM (inactive) | > 100 µM (inactive) | > 100 µM (inactive) | > 100 µM (inactive) | > 100 µM (inactive) | > 100 µM (inactive) | > 100 µM (inactive) | > 100 µM (inactive) | > 100 µM (inactive) | > 100 µM (inactive) | > 100 µM (inactive) | > 100 µM (inactive) | > 100 µM (inactive) | > 100 µM (inactive) | > 100 µM (inactive) | > 100 µM (inactive) | > 100 µM (inactive) | > 100 µM (inactive)
10 | O=C1C2CC[C@@H]3C(=O)C(Cl)(Cl)[C@@H]3CCC2C1(Cl)Cl (stereo partly drawn) | > 100 µM (inactive) | > 100 µM (inactive) | > 86.9 µM (inactive) | 46.6 µM (inactive) | > 100 µM (inactive) | > 100 µM (inactive) | 26.2 µM (inactive) | > 100 µM (inactive) | > 100 µM (inactive) | > 100 µM (inactive) | 42.8 µM (inactive) | > 100 µM (inactive) | > 100 µM (inactive) | > 100 µM (inactive) | > 87.7 µM (inactive) | > 100 µM (inactive) | > 100 µM (inactive) | > 100 µM (inactive) | 23.3 µM (inactive) | 44 µM (inactive)
11 | Nc1nn2c(C(Br)Br)cc(C(Br)Br)nc2c1[N+](=O)[O-] | 1.6 µM (inactive) | 2.41 µM (inactive) | 1.81 µM (inactive) | 0.437 µM (active) | 1.98 µM (inactive) | 0.766 µM (active) | 0.303 µM (active) | 0.971 µM (active) | 0.861 µM (active) | 1.32 µM (inactive) | 0.826 µM (active) | 0.5 µM (active) | 1.45 µM (inactive) | 2.17 µM (inactive) | 1.37 µM (inactive) | 0.962 µM (active) | 0.668 µM (active) | 1.25 µM (inactive) | 0.161 µM (active) | 0.269 µM (active)
12 | CC1=CC(=O)/C(=C/NC(=S)NCc2ccccc2)C(=O)O1 | > 100 µM (inactive) | > 100 µM (inactive) | > 100 µM (inactive) | > 100 µM (inactive) | > 100 µM (inactive) | > 100 µM (inactive) | 52.2 µM (inactive) | > 100 µM (inactive) | > 100 µM (inactive) | > 100 µM (inactive) | > 100 µM (inactive) | > 100 µM (inactive) | > 100 µM (inactive) | > 100 µM (inactive) | > 100 µM (inactive) | > 100 µM (inactive) | > 100 µM (inactive) | > 100 µM (inactive) | > 100 µM (inactive) | > 100 µM (inactive)
13 | C/C=C1\C[C@@H]2C(OC)Nc3cc(O)c(OC)cc3C(=O)N2C1 (stereo partly drawn) | < 0.01 µM (active) | < 0.01 µM (active) | < 0.01 µM (active) | < 0.01 µM (active) | – | 0.00437 µM (active) | < 0.01 µM (active) | < 0.0171 µM (active) | 0.00179 µM (active) | 0.0173 µM (active) | < 0.01 µM (active) | < 0.01 µM (active) | < 0.01 µM (active) | 0.0158 µM (active) | < 0.01 µM (active) | < 0.01 µM (active) | < 0.01 µM (active) | < 0.01 µM (active) | < 0.01 µM (active) | < 0.01 µM (active)
14 | CCc1nc(N)nc(N)c1-c1ccc(NCCN)c([N+](=O)[O-])c1 | 20.2 µM (inactive) | 2.75 µM (inactive) | 6.3 µM (inactive) | 21.8 µM (inactive) | 7.4 µM (inactive) | 36.1 µM (inactive) | 7.16 µM (inactive) | > 88.7 µM (inactive) | 34.9 µM (inactive) | 17.7 µM (inactive) | 10.2 µM (inactive) | 53.1 µM (inactive) | 20.7 µM (inactive) | 10.4 µM (inactive) | 39 µM (inactive) | 7.67 µM (inactive) | 9.08 µM (inactive) | > 100 µM (inactive) | 4.41 µM (inactive) | 4.24 µM (inactive)
